Experimental findings from ChEMBL document CHEMBL2440063, “Fragment-based identification of a locus in the Sec7 domain of Arno for the design of protein-protein interaction inhibitors” (J Med Chem, 2013) are described below.

The structures appear in SMILES notation. The source made the active and inactive calls. The rule behind the calls is not given here.

The target of assay [1] is T1, Cytohesin-2 (Homo sapiens) (UniProt Q99418).
T1 sequence (whole entry): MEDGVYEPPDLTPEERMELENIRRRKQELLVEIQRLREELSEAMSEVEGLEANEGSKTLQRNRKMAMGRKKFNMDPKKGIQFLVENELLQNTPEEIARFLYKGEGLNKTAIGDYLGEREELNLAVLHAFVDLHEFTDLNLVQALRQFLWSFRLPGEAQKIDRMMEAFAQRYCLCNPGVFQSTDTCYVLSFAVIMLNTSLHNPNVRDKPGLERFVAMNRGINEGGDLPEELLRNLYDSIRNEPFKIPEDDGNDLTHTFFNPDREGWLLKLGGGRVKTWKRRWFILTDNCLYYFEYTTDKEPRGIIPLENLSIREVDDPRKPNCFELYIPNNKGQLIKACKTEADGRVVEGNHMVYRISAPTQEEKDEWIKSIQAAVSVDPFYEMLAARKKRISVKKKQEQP
Put plainly: Binding affinity to human Arno Sec7 domain immobilized on CAP sensor chip at 1 mM after 15 mins by […].

The target of assay [2] is T1, Cytohesin-2 (Homo sapiens). Description: Binding affinity to human Arno Sec7 domain immobilized on CAP sensor chip at 250 uM by surface plasmon resonance analysis. In general terms: In SPR one partner is held on a chip, and binding of the other changes the refractive index at the surface.
In assay [3] the target is T1, Cytohesin-2 (Homo sapiens). Description: Inhibition of human Alexa 488 labeled Arno Sec7 domain-mediated promiscuous aggregator activity in delta17 Arf1 (17 to 181) at 100 uM by fluorescence anisotropy assay. On the technique in general: Fluorescence polarisation rises when a labelled molecule tumbles more slowly, as on binding a larger partner.
The target in assay [4] is T1, Cytohesin-2 (Homo sapiens). Description: Inhibition of human Arno Sec7 domain-mediated nucleotide exchange in delta17 Arf1 (17 to 181) at 2 mM by BODIPY-GTP based time resolved fluorescence assay relative to control.
The target in assay [5] is T1, Cytohesin-2 (Homo sapiens). Put plainly: Inhibition of human Arno Sec7 domain-mediated nucleotide exchange in delta17 Arf1 (17 to 181) at 1 mM by BODIPY-GTP based time resolved fluorescence assay relative to control.
The target in assay [6] is T1, Cytohesin-2 (Homo sapiens). Put plainly: Inhibition of human Arno Sec7 domain […] delta17 Arf1 (17 to 181) at 1 mM after 15 mins by BODIPY-GTP based time resolved fluorescence assay relative to control.
The target in assay [7] is T2, Cytohesin-2 (Homo sapiens, UniProt Q99418).
T2 sequence (Q99418 whole entry): T1 sequence (whole entry)
Description: Inhibition of human Arno Sec7 domain-mediated nucleotide exchange in delta17 Arf1 (17 to 181) by BODIPY-GTP based time resolved fluorescence assay. The settings on record: read-out: Ki(app).

In assay [8] the target is T1, Cytohesin-2 (Homo sapiens). Description: Inhibition of human Alexa 488 labeled Arno Sec7 domain-mediated promiscuous aggregator activity in delta17 Arf1 (17 to 181) at 1 to 100 uM by fluorescence anisotropy assay.
Assay [9] deals with T1, Cytohesin-2 (Homo sapiens). Description: Inhibition of human Alexa 488 labeled Arno Sec7 domain-mediated promiscuous aggregator activity in delta17 Arf1 (17 to 181) at >20 uM by fluorescence anisotropy assay.
Assay [10] deals with T2, Cytohesin-2. Description: Binding affinity to human Arno Sec7 domain immobilized on CAP sensor chip after 15 mins by […].

In the case of `CCN(CC)Cc1cc(NC(C)=O)ccc1O`, the outcome in assay [1] was inactive. The result in assay [2] was Active.

Regarding `CC(C)(C)c1ccc(C(=O)NCc2ccco2)cc1`, the inhibition – broadly, the share of the control response that was lost under treatment – in [3] was “Active”.

For `Cc1c(O)ccc(NS(=O)(=O)c2ccccc2)c1C`, in [4], the inhibition stood at 24.2%.

`Cc1ccc(S(=O)(=O)Nc2cc(C)c(O)cc2C)cc1` registered an inhibition in assay [5] of 66.7%.

Take `COc1ccc(S(=O)(=O)Nc2c(C)cc(O)cc2C)cc1`: the inhibition in assay [5] worked out at 32.1%; in assay [6] it was 35%. For the same molecule, on Cytohesin-2 [7], the Ki came out at 1610 µM.

For the molecule `Cc1ccc(C)c(-c2csc(N)n2)c1`, the outcome in assay [1] and in assay [2] was Active. For the same molecule, in assay [4], the inhibition is 22.6%. Besides, the inhibition entry in assay [8] is “inactive”.

On to `Cc1cc(O)cc(C)c1NC(=O)c1cccc([N+](=O)[O-])c1`, for which the outcome in assay [1] was Active. Also, the inhibition in assay [4] turned out to be 16%.

In assay [5], `Cc1ccc(S(=O)(=O)Nc2c(C)cc(O)cc2C)cc1` had an inhibition of 32.7%. In addition, at Cytohesin-2 [7], the Ki worked out at 1910 µM.

As to `Clc1ccccc1C(c1ccccc1)(c1ccccc1)n1ccnc1`, the inhibition result in assay [9] was “Active”.

Take `O=C1CNC(=O)N1C12CC3CC(CC(C3)C1)C2`: the result in assay [1] was inactive. The result in [2] was Active.

Regarding `Cc1c(C(N)=O)sc(N)c1C(=O)OC(C)C`, the result in assay [1] was Active. In addition, the inhibition in assay [4] was determined as 37.9%. In [8], the inhibition result is “inactive”. Moreover, the outcome in assay [2] was inactive.

Turning to `COc1cc(C(=O)Nc2c(C)cc(O)cc2C)cc(OC)c1OC`, the outcome in [1] was Active. Moreover, in assay [4], the inhibition was determined as 9.9%.

Take `Cc1cc(O)cc(C)c1NS(=O)(=O)c1ccccc1`: the outcome in assay [1] and in assay [2] was Active. For the same molecule, the inhibition in assay [4] amounted to 34.6%; in assay [6], 30%. Further, the inhibition result in [8] is “inactive”. The Ki at Cytohesin-2 [7] was found to be 3720 µM. For the same molecule, at Cytohesin-2 [10], the Kd (as a rule, the equilibrium constant for the complex coming apart) amounted to 500 µM.

For `Cc1cc(NS(=O)(=O)c2ccccc2)cc(C)c1O`, in [4], the inhibition came out at 31.2%. Further, the Ki at Cytohesin-2 [7] amounted to 5120 µM.

Turning to `Cc1cc(O)cc(C)c1NS(=O)(=O)c1ccc([N+](=O)[O-])cc1`, in [1], the outcome was Active. Moreover, the inhibition in assay [5] was found to be 58.4%. For the same molecule, the Ki at Cytohesin-2 [7] worked out at 540 µM.

Regarding `Cc1cc(O)ccc1NS(=O)(=O)c1cccs1`, the result in [1] and in [2] was Active. Also, in assay [4], the inhibition is 16.4%. The inhibition result in assay [8] is “inactive”.

With `O=S(=O)(Nc1ccccc1O)c1ccccc1`, the outcome in assay [1] was inactive. Also, the inhibition in assay [5] stood at 21.6%.

Turning to `Cc1cc(C)c(S(=O)(=O)Nc2ccc(O)cc2C)c(C)c1`, in [5], the inhibition came out at 51.5%. The Ki at Cytohesin-2 [7] worked out at 980 µM.
